Reference: US20250312355A1, “DHCR24 INHIBITORY COMPOUNDS” (ACADEMISCH ZIEKENHUIS LEIDEN (H.O.D.N. LUMC), priority 2022, published 2025)
Where two headings read alike, the source gives them in different places.

What was measured:
HL-60 cells = test: IC50 determination: incorporation of 13C-acetate into cholesterol in HL-60 cells (GC-MS); format: cell-based; details: Homo sapiens, read-out: HL60 assay activity
Description: Two test concentrations (1 μM and 50 μM) were used. The compounds were dissolved in ethanol or DMSO and the testing-stock solutions are prepared taking a final dilution of 1:100 into account. Ultimately 10 μL of testing stock solution were added to 990 μL of lipid-free medium containing 1% lipoprotein deficient serum (LPDS) without antibiotics. HL-60 cells (1×10^6 cells) were incubated in 24-well plates in 1.0 mL of medium consisting of 990 μL of lipid free medium with 1% LPDS and 10 μL of respective inhibitor solution.
For IC50 determination, the incorporation of labelled acetate in the target molecule cholesterol is being assessed and the protocol is altered in the following manner: to each well 10 μL of a sterile sodium 2-^13C-acetate solution (6.25 mg/mL) were added before the addition of the inhibitor solution, leading to a final ^13C-acetate concentration of 62.5 μg/mL. After saponification 3×25 μL aliquots are taken for protein determination applying the Bradford reagent. After work-up and silylation, GC-MS analysis allows the quantification ^13C incorporation into cholesterol according to the below given formula. The percentage inhibition (see formula) relative to untreated control samples (0% inhibition) was plotted against the logarithmic inhibitor concentration using Graph Pad Prism 4 (or higher). A bottom level constant equal to 0 is set as constraint using a sigmoidal dose-response model with a various slope. All samples are normalised to their protein. For each concentration the inhibitory percentage is determined in triplicate.
The above formula is the calculation formula for the percentage inhibition, where AS represents the area sample; AI.S.C. represents the area internal standard control; PCC represents the protein content control; AC represents the area control; AI.S.S. represents the area internal standard sample; and PCs represents the protein content sample.

male E3L.CETP mice [1] = test: E3L.CETP mice on HFCD, SH42 for 4 weeks, flow cytometry of hepatic immune cells; format: in vivo
Description: Hemizygous APOE*3-Leiden […]) mice were crossbred with homozygous human cholesteryl ester transfer protein (CETP) transgenic mice to generate heterozygous E3L.CETP mice on a C57BL/6J background [[…] al., “Cholesteryl ester transfer protein decreases high-density lipoprotein and severely aggravates atherosclerosis in APOE*3-Leiden mice”; Arterioscler Thromb Vasc Biol 26, 2552-2559 (2006)]. Because of phenotypical heterogeneity of E3L. CETP mice, non-responder mice were identified by 4-hour fasting plasma lipid levels, i.e., total cholesterol levels <2 mM and triglyceride levels <2 mM, and excluded before special diet treatment. LXRα-deficient mice (also on C57BL/6J background), generated by Deltagen using gene-targeting methods as described [T. Plosch et al., “Abcg5/Abcg8-independent pathways contribute to hepatobiliary cholesterol secretion in mice”; Am J Physiol Gastrointest Liver Physiol, 291, […]-423 (2006)(33)] were provided by Tularik (San Francisco, CA, US). […] All animals received humane care according to the criteria outlined in the NIH “Guide for the Care and Use of Laboratory Animals”. All animal procedures were performed in conformance with the guidelines from Directive 2010/63/EU of the European Parliament on the protection of animals used for scientific purposes. At the age of 10-12 weeks, male E3L.CETP mice and LXRα-deficient mice were fed a high fat high cholesterol diet (HFCD; […] LXRα-deficient mice were treated with either SH42 (n=11 mice) or vehicle (n=10 mice) for 4 weeks to evaluate effects on hepatic steatosis and immune cells. In a rescue experiment, male E3L.CETP mice were fed with HFCD for 10 weeks first and cotreated with SH42 (0.5 mg mouse^-1) or vehicle (saline containing 3.3% ethanol and 3.3% Cremophor EL) 3 times per week by intraperitoneal injection for additional 8 weeks.

male E3L.CETP mice [2] = test: E3L.CETP mice on high fat high cholesterol diet, SH42 for 8 weeks (hepatic steatosis, lipidomics, immunohistochemistry, plasma lipids); format: in vivo
male E3L.CETP mice [3] = test: Rescue experiment: E3L.CETP mice on HFCD for 10 weeks, then SH42 for additional 8 weeks; format: in vivo
Description: Hemizygous APOE*3-Leiden (E3L) mice were crossbred with homozygous human cholesteryl ester transfer protein (CETP) transgenic mice to generate heterozygous E3L.CETP mice on a C57BL/6J background [M. Westerterp et al., “Cholesteryl ester transfer protein decreases high-density lipoprotein and severely aggravates atherosclerosis in APOE*3-Leiden mice”; Arterioscler Thromb Vasc Biol 26, 2552-2559 (2006)]. Because of phenotypical heterogeneity of E3L. CETP mice, non-responder mice were identified by 4-hour fasting plasma lipid levels, i.e., total cholesterol levels <2 mM and triglyceride levels <2 mM, and excluded before special diet treatment. LXRα-deficient mice (also on C57BL/6J background), generated by Deltagen using gene-targeting methods as described [T. Plosch et al., “Abcg5/Abcg8-independent pathways contribute to hepatobiliary cholesterol secretion in mice”; Am J Physiol Gastrointest Liver Physiol, 291, G414-423 (2006)(33)] were provided by Tularik (San Francisco, CA, US). Mice were group-housed in individually ventilated cages in standard conditions at room temperature (22° C.) with 40±5% relative humidity and a 12-h light/dark (7 am lights on; 7 pm lights off) cycle. All animals received humane care according to the criteria outlined in the NIH “Guide for the Care and Use of Laboratory Animals”. All animal procedures were performed in conformance with the guidelines from Directive 2010/63/EU of the European Parliament on the protection of animals used for scientific purposes.
At the age of 10-12 weeks, male E3L.CETP mice and LXRα-deficient mice were fed a high fat high cholesterol diet (HFCD; Altromin, Germany) containing 60% (energy) fat and 1% (wt/wt) cholesterol, and were randomized into two groups treated with either the DHCR24 inhibitor compound of Example 11 [also referred to herein as SH42] (0.5 mg·mouse^−1) or vehicle (saline containing 3.3% ethanol and 3.3% Cremophor EL) 3 times per week by intraperitoneal injection. E3L.CETP mice were treated for 4 weeks (n=6 mice per group) and 8 weeks (n=8 mice per group) to evaluate effects on hepatic immune cells via flow cytometry analysis and hepatic steatosis via quantitative lipidomic analysis, respectively. LXRα-deficient mice were treated with either SH42 (n=11 mice) or vehicle (n=10 mice) for 4 weeks to evaluate effects on hepatic steatosis and immune cells. In a rescue experiment, male E3L.CETP mice were fed with HFCD for 10 weeks first and cotreated with SH42 (0.5 mg mouse^−1) or vehicle (saline containing 3.3% ethanol and 3.3% Cremophor EL) 3 times per week by intraperitoneal injection for additional 8 weeks.
Body weight was measured weekly. Body composition (i.e. fat body and lean body mass; EchoMRI-100; EchoMRI, Houston, TX, USA) was evaluated before and after intervention. Food intake was determined during the treatment period.

[4] = HL-60 cells, 24 h, 13C-acetate incorporation into cholesterol
[5] = 8 weeks, absolute concentration
[6] = after 8 weeks of treatment, vs control group
[7] = 10 weeks HFCD, then 8 weeks treatment

C=C(F)C(=O)N(C)C[C@@H](C)[C@H]1CC[C@H]2C3=CCC4C[C@@H](OC(C)=O)CC[C@]4(C)[C@H]3CC[C@]12C (stereo partly drawn) [Example 37, (3S,20S)-20-[(2-Fluoro-N-methylacrylamido)methyl]-pregn-7-en-3-yl Acetate]
IC50 (HL-60 cells; [4]): 110 nM

C[C@@H](CO)[C@H]1CC[C@H]2C3=CCC4C[C@@H](O)CC[C@]4(C)[C@H]3CC[C@]12C (stereo partly drawn) [Example 30, (3S,20R)-20-(Hydroxymethyl)-pregn-7-en-3-ol]
IC50 (HL-60 cells; HL-60, 24 h): 300 nM

CC(=O)O[C@H]1CC[C@@]2(C)C(CC=C3[C@@H]4CC[C@H]([C@H](C)CCOC=O)[C@@]4(C)CC[C@@H]32)C1 (stereo partly drawn) [Example 34, (3S,20R)-20-(2-Formyloxyethyl)-pregn-7-en-3-yl Acetate]
IC50 (HL-60 cells; [4]): 1000 nM

C=C(F)C(=O)OC[C@@H](C)C1CCC2c3ccc4c(c3CC[C@@]21C)CC[C@H](OC(C)=O)C4 (stereo partly drawn) [Example 35, (3S,20S)-20-[(2-Fluoroacryloyloxy)methyl]-pregn-5,7,9-trien-3-yl Acetate]
IC50 (HL-60 cells; [4]): 130 nM

CC(=O)O[C@H]1CC[C@@]2(C)C(CC=C3C2CC[C@@]2(C)C3CCC2[C@H](C)COC=O)C1 (some centres unmarked) [Example 11]
circulating neutrophils (male E3L.CETP mice [1]): without affecting | hepatic neutrophils, change (male E3L.CETP mice [1]): −50% | monocytes in liver, change (male E3L.CETP mice [1]): −79% | MHCII+/CD11c+ activated KCs (male E3L.CETP mice [1]; flow cytometry): did not significantly reduce | MHCII−/CD11c− resting KCs, change (male E3L.CETP mice [1]; flow cytometry): +21% | total Kupffer cells (KCs), change (male E3L.CETP mice [1]; flow cytometry): +44% | total hepatic leukocytes, change (male E3L.CETP mice [1]; flow cytometry, p=0.09): −37% | monocytes in blood, change (male E3L.CETP mice [1]; p=0.06): −43% | food intake (male E3L.CETP mice [2]; 0.5 mg/mouse i.p. 3 times per week, 8 weeks, vs vehicle): did not affect | HFCD-induced body weight gain (male E3L.CETP mice [2]; 0.5 mg/mouse i.p. 3 times per week, vs control group): temporarily preventing | fasting plasma glucose (male E3L.CETP mice [2]; 8 weeks): did not affect | fasting plasma insulin (male E3L.CETP mice [2]; 8 weeks): did not affect | homeostatic Model Assessment for Insulin Resistance (HOMA-IR) scores (male E3L.CETP mice [2]; 8 weeks): did not affect | weight of various tissues (liver, white adipose tissue, kidney, heart, lung, spleen, brown adipose tissue) (male E3L.CETP mice [2]; 8 weeks): unchanged | plasma levels of FFA, change (male E3L.CETP mice [2]; [5]): −16% | plasma levels of total DAG (male E3L.CETP mice [2]; [5]): did not affect | plasma levels of total TAG (male E3L.CETP mice [2]; [5]): did not affect | plasma levels of CE, change (male E3L.CETP mice [2]; 8 weeks, absolute concentration, p=0.08): −24% | hepatic F4/80 content, change (male E3L.CETP mice [2]; 8 weeks, immunohistochemistry): −29% | number of hepatic crown-like structures, change (male E3L.CETP mice [2]; 8 weeks, immunohistochemistry): −79% | hepatic free fatty acids (FFA), change (male E3L.CETP mice [2]; 8 weeks, liver): −16% | other liver lipid classes, including CER, PC, PE and SM (relative) (male E3L.CETP mice [2]; 8 weeks, liver lipidomics): relative increase | relative reduction of DAG in liver lipid class composition (male E3L.CETP mice [2]; 8 weeks, liver lipidomics): −22% | relative reduction of TAG in liver lipid class composition (male E3L.CETP mice [2]; 8 weeks, liver lipidomics): −21% | increase of hepatic desmosterol levels (male E3L.CETP mice [2]; 8 weeks, liver, vs vehicle): 10 fold | circulating CE (relative, plasma lipidome) (male E3L.CETP mice [2]; 8 weeks, plasma): relatively decreased | lactosylceramides (LCER), phosphatidylcholine (PC) and phosphatidylethanolamine (PE) (relative, plasma lipidome) (male E3L.CETP mice [2]; 8 weeks, plasma): relatively increasing | hepatic steatosis score (HE staining), change (male E3L.CETP mice [2]; 8 weeks, vs control treatment): −58% | liver lipid area, change (male E3L.CETP mice [2]; 8 weeks, vs control treatment): −35% | body composition (lean body mass and fat body mass) (male E3L.CETP mice [2]; [6]): comparable to that of the control group | body weight (male E3L.CETP mice [2]; [6]): comparable to that of the control group | plasma desmosterol levels (male E3L.CETP mice [2]; plasma, from undetectable levels (<0.5 μg·mL^−1)): 3.1 ± 0.4 µg/mL | body composition (male E3L.CETP mice [3]; [7]): did not significantly influence | collagen content (liver fibrosis), change (male E3L.CETP mice [3]; [7]): −50% | hepatic crown-like structures, change (male E3L.CETP mice [3]; [7]): −89% | hepatic steatosis (male E3L.CETP mice [3]; [7]): No difference | increase in plasma desmosterol levels (male E3L.CETP mice [3]; [7]): > 400 fold | liver weight (male E3L.CETP mice [3]; [7]): No difference | plasma alanine transaminase (ALT), change (male E3L.CETP mice [3]; [7]): −42% | total body weight (male E3L.CETP mice [3]; [7]): did not significantly influence | F4/80 positive area (male E3L.CETP mice [3]; mouse, in vivo): without significant influence

C[C@H](CSSc1ccccn1)C1CCC2C3=CCC4C[C@@H](O)CC[C@]4(C)C3CC[C@@]21C (some centres unmarked) [Example 5]
IC50 (HL-60 cells; [4]): 417 nM

C[C@H](CO)[C@H]1CC[C@H]2C3=CCC4C[C@H](O)CC[C@]4(C)[C@H]3CC[C@]12C (stereo partly drawn) [Example 31, (3R,20S)-20-(Hydroxymethyl)-pregn-7-en-3-ol]
IC50 (HL-60 cells; HL-60, 24 h): 280 nM

CC(=O)O[C@H]1CC[C@@]2(C)C(CC=C3C2CC[C@@]2(C)C3CCC2[C@H](C)COC(=O)CN(C)C)C1 (some centres unmarked) [Example 25]
IC50 (HL-60 cells; HL-60, 24 h): 6 nM

C[C@H](CO)C1CCC2c3ccc4c(c3CC[C@@]21C)CC[C@H](O)C4 (stereo partly drawn) [Example 33, (3S,20S)-20-(Hydroxymethyl)-pregn-5,7,9-trien-3-ol]
IC50 (HL-60 cells; [4]): 175 nM

C[C@H](CO)C1CCC2C3CC=C4C[C@@H](O)CC[C@]4(C)C3CC[C@@]21C (some centres unmarked) [Example 29]
IC50 (HL-60 cells; HL-60, 24 h): 3 nM
